Data taken from patent US20110105493A1, “HETEROCYCLYL SUBSTITUTED ARYLINDENOPYRIMIDINES AND THEIR USE AS HIGHLY SELECTIVE ADENOSINE A2a RECEPTOR ANTAGONISTS” (priority 2009, published 2011).

Assays:
[1] = molecular target: T1, human adenosine A1 receptor (Homo sapiens, UniProt P30542); test: Adenosine A1 Receptor Functional Assay (A1GAL2); format: cell-based; details: CHO-K1 cells overexpressing human A1 receptor, cAMP inducible beta-galactosidase reporter, 4 nM r-PIA/1 uM Forskolin agonist challenge
T1 construct: expressed in transfected cells; host or cells: CHO-K1 cells with a cAMP inducible beta-galactosidase reporter gene
T1 sequence (P30542 1-326): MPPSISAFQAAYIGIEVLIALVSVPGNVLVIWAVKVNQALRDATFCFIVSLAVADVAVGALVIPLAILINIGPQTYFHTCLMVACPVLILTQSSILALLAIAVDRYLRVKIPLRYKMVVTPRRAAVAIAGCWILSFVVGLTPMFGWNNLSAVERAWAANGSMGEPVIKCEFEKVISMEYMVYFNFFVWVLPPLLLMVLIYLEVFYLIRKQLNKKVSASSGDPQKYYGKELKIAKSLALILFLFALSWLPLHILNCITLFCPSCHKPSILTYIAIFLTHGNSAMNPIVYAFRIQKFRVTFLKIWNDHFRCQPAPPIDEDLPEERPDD
Method: Adenosine A1 Receptor Functional Assay (A1GAL2)
To initiate the functional assay, cryopreserved CHO—K1 cells overexpressing the human adenosine A1 receptor and containing a cAMP inducible beta-galactosidase reporter gene were thawed, centrifuged, DMSO containing media removed, and then seeded with fresh culture media into clear 384-well tissue culture treated plates (BD #353961) at a concentration of 10K cells/well. Prior to assay, these plates were cultured for two days at 37° C., 5% CO2, 90% Rh. On the day of the functional assay, culture media was removed and replaced with 45 μL assay medium (Hams/F-12 Modified (Mediatech # 10-080CV) supplemented w/0.1% BSA). Test compounds were diluted and 11 point curves created at a 1000× concentration in 100% DMSO. Immediately after addition of assay media to the cell plates, 50 nL of the appropriate test compound antagonist or agonist control curves were added to cell plates using a Cartesian Hummingbird. Compound curves were allowed to incubate at room temperature on cell plates for approximately 15 minutes before addition of a 4 nM r-PIA (Sigma P4532)/1 uM Forskolin (Sigma F3917) agonist challenge (5 μL volume). A control curve of r-PIA in1 uM Forskolin, a DMSO/Media control, and a single dose of Forskolin were also included on each plate. After additions, cell plates were allowed to incubate at 37° C., 5% CO2, 90% Rh for 5.5-6 hours. After incubation, media was removed, and cell plates were washed 1×50 μL with DPBS w/o Ca & Mg (Mediatech 21-031-CV). Into dry wells, 20 μL of 1×Reporter Lysis Buffer (Promega E3971 (diluted in dH2O from 5× stock)) was added to each well and plates frozen at −20° C. overnight. For β-galactosidase enzyme colorimetric assay, plates were thawed out at room temperature and 20 μL 2×assay buffer (Promega) was added to each well. Color was allowed to develop at 37° C., 5% CO2, 90% Rh for 1-1.5 h or until reasonable signal appeared. The colorimetric reaction was stopped with the addition of 60 μL/well 1M sodium carbonate. Plates were counted at 405 nm on a SpectraMax Microplate Reader (Molecular Devices). Data was analyzed in Microsoft Excel and IC/EC50 curves were fit using a standardized macro.

[2] = molecular target: T2, human adenosine A2A receptor (Homo sapiens, UniProt P29274); test: Adenosine A2A Receptor Functional Assay (A2A GAL2); format: cell-based; details: for IC50: CHO-K1 cells overexpressing human A2A receptor, cAMP inducible beta-galactosidase reporter, 15 nM NECA agonist challenge, read-out: A2AGal2; for A1/A2A: ratio of A1Gal2 to A2AGal2 values
T2 construct: expressed in transfected cells; host or cells: CHO-K1 cells with a cAMP inducible beta-galactosidase reporter gene
T2 sequence (P29274 whole entry): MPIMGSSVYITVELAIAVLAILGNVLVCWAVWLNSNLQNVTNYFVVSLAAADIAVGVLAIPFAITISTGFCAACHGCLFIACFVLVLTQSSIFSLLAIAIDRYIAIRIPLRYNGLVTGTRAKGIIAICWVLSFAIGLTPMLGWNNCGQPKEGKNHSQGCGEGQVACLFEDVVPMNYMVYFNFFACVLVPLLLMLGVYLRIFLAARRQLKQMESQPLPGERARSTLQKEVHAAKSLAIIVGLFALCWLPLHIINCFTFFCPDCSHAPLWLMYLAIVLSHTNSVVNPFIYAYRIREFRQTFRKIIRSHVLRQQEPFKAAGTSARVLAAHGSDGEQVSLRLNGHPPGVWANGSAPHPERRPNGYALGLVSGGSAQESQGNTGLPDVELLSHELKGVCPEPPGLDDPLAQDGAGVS
Method: Adenosine A2A Receptor Functional Assay (A2A GAL2)
To initiate the functional assay, cryopreserved CHO—K1 cells overexpressing the human adenosine A2A receptor and containing a cAMP inducible beta-galactosidase reporter gene were thawed, centrifuged, DMSO containing media removed, and then seeded with fresh culture media into clear 384-well tissue culture treated plates (BD #353961) at a concentration of 10K cells/well. Prior to assay, these plates were cultured for two days at 37° C., 5% CO2, 90% Rh. On the day of the functional assay, culture media was removed and replaced with 45 μL assay medium (Hams/F-12 Modified (Mediatech # 10-080CV) supplemented w/0.1% BSA). Test compounds were diluted and 11 point curves created at a 1000× concentration in 100% DMSO. Immediately after addition of assay media to the cell plates, 50 nL of the appropriate test compound antagonist or agonist control curves were added to cell plates using a Cartesian Hummingbird. Compound curves were allowed to incubate at room temperature on cell plates for approximately 15 minutes before addition of a 15 nM NECA (Sigma E2387) agonist challenge (5 μL volume). A control curve of NECA, a DMSO/Media control, and a single dose of Forskolin (Sigma F3917) were also included on each plate. After additions, cell plates were allowed to incubate at 37° C., 5% CO2, 90% Rh for 5.5-6 hours. After incubation, media were removed, and cell plates were washed 1×50 μL with DPBS w/o Ca & Mg (Mediatech 21-031-CV). Into dry wells, 20 μL of 1×Reporter Lysis Buffer (Promega E3971 (diluted in dH2O from 5× stock)) was added to each well and plates frozen at −20° C. overnight. For β-galactosidase enzyme colorimetric assay, plates were thawed out at room temperature and 20 μL 2× assay buffer (Promega) was added to each well. Color was allowed to develop at 37° C., 5% CO2, 90% Rh for 1-1.5 h or until reasonable signal appeared. The colorimetric reaction was stopped with the addition of 60 μL/well 1M sodium carbonate. Plates were counted at 405 nm on a SpectraMax Microplate Reader (Molecular Devices). Data was analyzed in Microsoft Excel and IC/EC50 curves were fit using a standardized macro.

IC50 [1] [nM]	IC50 [2] [nM]	A1/A2A [2]	Compound
4050	0.2	20250	CC(=O)c1ccc(N2CCN(c3cccc4c3-c3nc(N)nc(-c5ccccc5)c3C4=O)CC2)cc1 [Example 1, 9-[4-(4-Acetyl-phenyl)-piperazin-1-yl]-2-amino-4-phenyl-indeno[1,2-d]pyrimidin-5-one]
9500	1.6	5937.5	Nc1nc(-c2ccccc2)c2c(n1)-c1c(cccc1N1CCN(c3ccc(F)cn3)CC1)C2=O [Example 2, 2-Amino-9-[4-(5-fluoro-pyridin-2-yl)-piperazin-1-yl]-4-phenyl-indeno[1,2-d]pyrimidin-5-one]
3500	0.6	5833.33	N#Cc1ccc(N2CCN(c3cccc4c3-c3nc(N)nc(-c5ccccc5)c3C4=O)CC2)cc1 [Example 3, 4-[4-(2-Amino-5-oxo-4-phenyl-5H-indeno[1,2-d]pyrimidin-9-yl)-piperazin-1-yl]-benzonitrile]
1900	1.2	1583.33	Nc1nc(-c2ccccc2)c2c(n1)-c1c(cccc1N1CCN(c3ccccc3F)CC1)C2=O [Example 4, 2-Amino-9-[4-(2-fluoro-phenyl)-piperazin-1-yl]-4-phenyl-indeno[1,2-d]pyrimidin-5-one]
750	0.49	1530.61	COCCOc1ccc(N2CCN(c3cccc4c3-c3nc(N)nc(-c5ccccc5)c3C4=O)CC2)c(F)c1 [Example 5, 2-Amino-9-{4-[2-fluoro-4-(2-methoxy-ethoxy)-phenyl]-piperazin-1-yl}-4-phenyl-indeno[1,2-d]pyrimidin-5-one]
2900	2.6	1115.38	Nc1nc(-c2ccccc2)c2c(n1)-c1c(cccc1N1CCN(c3ccc(F)cc3F)CC1)C2=O [Example 6, 2-Amino-9-[4-(2,4-difluoro-phenyl)-piperazin-1-yl]-4-phenyl-indeno[1,2-d]pyrimidin-5-one]
2900	2.7	1074.07	N#Cc1ccccc1N1CCN(c2cccc3c2-c2nc(N)nc(-c4ccccc4)c2C3=O)CC1 [Example 7, 2-[4-(2-Amino-5-oxo-4-phenyl-5H-indeno[1,2-d]pyrimidin-9-yl)-piperazin-1-yl]-benzonitrile]
2100	2.7	777.778	N#Cc1ccc(N2CCN(c3cccc4c3-c3nc(N)nc(-c5ccccc5)c3C4=O)CC2)nc1 [Example 8, 6-[4-(2-Amino-5-oxo-4-phenyl-5H-indeno[1,2-d]pyrimidin-9-yl)-piperazin-1-yl]-nicotinonitrile]
6200	8.1	765.432	Nc1nc(-c2ccccc2)c2c(n1)-c1c(cccc1N1CCN(c3ccc(C(F)(F)F)cc3)CC1)C2=O [Example 9, 2-Amino-4-phenyl-9-[4-(4-trifluoromethyl-phenyl)-piperazin-1-yl]-indeno[1,2-d]pyrimidin-5-one]
1900	2.6	730.769	Nc1nc(-c2ccccc2)c2c(n1)-c1c(cccc1N1CCN(c3ncccc3F)CC1)C2=O [Example 10, 2-Amino-9-[4-(3-fluoro-pyridin-2-yl)-piperazin-1-yl]-4-phenyl-indeno[1,2-d]pyrimidin-5-one]
250	0.36	694.444	COCCOc1ccc(N2CCN(c3cccc4c3-c3nc(N)nc(-c5ccccc5)c3C4=O)CC2)cc1 [Example 11, 2-Amino-9-{4-[4-(2-methoxy-ethoxy)-phenyl]-piperazin-1-yl}-4-phenyl-indeno[1,2-d]pyrimidin-5-one]
1050	2.27	463.233	Nc1nc(-c2ccccc2)c2c(n1)-c1c(cccc1N1CCN(CCc3ccccc3)CC1)C2=O [Example 12, 2-Amino-9-(4-phenethyl-piperazin-1-yl)-4-phenyl-indeno[1,2-d]pyrimidin-5-one]
310	0.67	462.687	Nc1nc(-c2ccccc2)c2c(n1)-c1c(cccc1N1CCC(O)(c3ccccc3)CC1)C2=O [Example 13, 2-Amino-9-(4-hydroxy-4-phenyl-piperidin-1-yl)-4-phenyl-indeno[1,2-d]pyrimidin-5-one]
1400	3.2	437.5	N#Cc1cccnc1N1CCN(c2cccc3c2-c2nc(N)nc(-c4ccccc4)c2C3=O)CC1 [Example 14, 2-[4-(2-Amino-5-oxo-4-phenyl-5H-indeno[1,2-d]pyrimidin-9-yl)-piperazin-1-yl]-nicotinonitrile]
100	0.44	227.273	CS(=O)(=O)c1ccc(N2CCN(c3cccc4c3-c3nc(N)nc(-c5ccccc5)c3C4=O)CC2)cc1 [Example 15, 2-Amino-9-[4-(4-methanesulfonyl-phenyl)-piperazin-1-yl]-4-phenyl-indeno[1,2-d]pyrimidin-5-one]
25	0.14	178.571	COc1ccc(N2CCN(c3cccc4c3-c3nc(N)nc(-c5ccccc5)c3C4=O)CC2)cc1 [Example 16, 2-Amino-9-[4-(4-methoxy-phenyl)-piperazin-1-yl]-4-phenyl-indeno[1,2-d]pyrimidin-5-one]
200	1.4	142.857	Nc1nc(-c2ccccc2)c2c(n1)-c1c(cccc1N1CCN(c3ccccn3)CC1)C2=O [Example 17, 2-Amino-4-phenyl-9-(4-pyridin-2-yl-piperazin-1-yl)-indeno[1,2-d]pyrimidin-5-one]
600	4.5	133.333	COc1ccc(C2CCN(c3cccc4c3-c3nc(N)nc(-c5ccccc5)c3C4=O)CC2)cc1 [Example 18, 2-Amino-9-[4-(4-methoxy-phenyl)-piperidin-1-yl]-4-phenyl-indeno[1,2-d]pyrimidin-5-one]
1080	10.3	104.858	CCCN1CCN(c2cccc3c2-c2nc(N)nc(-c4ccccc4)c2C3=O)CC1 [Example 19, 2-Amino-4-phenyl-9-(4-propyl-piperazin-1-yl)-indeno[1,2-d]pyrimidin-5-one]
150	1.5	100	NC(=O)c1ccc(C2CCN(c3cccc4c3-c3nc(N)nc(-c5ccccc5)c3C4=O)CC2)cc1 [Example 20, 4-[1-(2-Amino-5-oxo-4-phenyl-5H-indeno[1,2-d]pyrimidin-9-yl)-piperidin-4-yl]-benzamide]
